Results published in patent US20120165319A1, “INHIBITORS OF INTERLEUKIN-1 BETA CONVERTING ENZYME” (VERTEX PHARMACEUTICALS INCORPORATED, priority 1995, published 2012).
Where two headings read alike, the source gives them in different places.

Tests used:
[1] = molecular target: T1, ICE (Homo sapiens, UniProt P29466); assay: Enzyme assay with UV-visible substrate (visible ICE assay, Succinyl-Tyr-Val-Ala-Asp-pNitroanilide); format: biochemical
T1 sequence (P29466 120-297 limits assumed): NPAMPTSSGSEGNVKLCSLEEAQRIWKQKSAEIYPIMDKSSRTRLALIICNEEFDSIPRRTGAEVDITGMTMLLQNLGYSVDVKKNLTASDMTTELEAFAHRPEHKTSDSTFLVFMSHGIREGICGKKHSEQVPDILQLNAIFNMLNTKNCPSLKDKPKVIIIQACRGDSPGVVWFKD
T1 sequence (P29466 317-404 limits assumed): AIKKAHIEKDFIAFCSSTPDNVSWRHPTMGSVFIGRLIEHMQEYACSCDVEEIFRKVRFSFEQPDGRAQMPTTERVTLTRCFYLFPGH
In short: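 Read-out is the rate of pNA chromophore release (mOD/min, linear fit) monitored at 405-603 nm over 20 min at 37° C. Substrate was succinyl-Tyr-Val-Ala-Asp-pNitroanilide, added after a 15 min room-temperature preincubation of ICE with inhibitor.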

[2] = tested on: IL-1β, human peripheral blood mononuclear cells (PBMC); assay: PBMC cell assay: IL-1β assay with human PBMC or enriched adherent mononuclear cells, LPS-stimulated; format: cell-based; conditions: * = values obtained upon reassay
In short: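 Buffy-coat human PBMC at 6×10^6 cells/ml, or adherent monocytes enriched by 1 h adherence (2.5−3.0×10^5 cells/well), are given 5–6 compound dilutions bracketing the ICE Ki (final DMSO 0.1%) plus LPS at a final 5 ng/ml. They are incubated 16–18 hr at 37 °C, 5% CO2, and supernatant mature IL-1β is measured by ELISA, with duplicate cultures and duplicate ELISAs.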

[3] = tested on: IL-1β, human whole blood; assay: Whole blood assay for IL-1β production; format: cell-based; conditions: read-out: Whole human blood IC50
Description: The whole blood assay is a simple method for measuring the production of IL-1b (or other cytokines) and the activity of potential inhibitors. The complexity of this assay system, with its full complement of lymphoid and inflammatory cell types, spectrum of plasma proteins and red blood cells is an ideal in vitro representation of human in vivo physiologic conditions.
Pyrogen-free syringes (˜30 cc) Pyrogen-free sterile vacuum tubes containing lyophilized Na2EDTA (4.5 mg/10 ml tube) Human whole blood sample (˜30-50 cc) 1.5 ml eppendorf tubes Test compound stock solutions (˜25 mM in DMSO or other solvent) Endotoxin-free sodium chloride solution (0.9%) and HBSS Lipopolysaccharide (Sigma; Cat. # L-3012) stock solution at 1 mg/ml in HBSS
IL-1β ELISA Kit (R & D Systems; Cat # DLB50)
TNFα ELISA Kit (R & D Systems; Cat # DTA50)
Whole Blood Assay Experimental Procedure:
Set incubator or water bath at 30° C. Aliquot 0.25 ml of blood into 1.5 ml eppendorf tubes. Note: be sure to invert the whole blood sample tubes after every two aliquots. Differences in replicates may result if the cells sediment and are not uniformly suspended. Use of a positive displacement pipette will also minimize differences between replicate aliquots.
Prepare drug dilutions in sterile pyrogen-free saline by serial dilution. A dilution series which brackets the apparent Ki for a test compound determined in an ICE inhibition assay is generally used for the primary compound screen.
Add 25 μl test compound dilution or vehicle control and gently mix the sample. Then add 5.0 μl LPS solution (250 ng/ml stocked prepared fresh: 5.0 ng/ml final concentration LPS), and mix again. Incubate the tubes at 30° C. in a water bath for 16-18 hr with occasional mixing. Alternatively, the tubes can be placed in a rotator set at 4 rpm for the same incubation period. This assay should be set up in duplicate or triplicate with the following controls: negative control—no LPS; positive control—no test inhibitor; vehicle control—the highest concentration of DMSO or compound solvent used in the experiment. Additional saline is added to all control tubes to normalize volumes for both control and experimental whole blood test samples
After the incubation period, whole blood samples are centrifuged for 10 minutes at ˜2000 rpm in the microfuge, plasma is transferred to a fresh microfuge tube and centrifuged at 1000×g to pellet residual platelets if necessary. Plasma samples may be stored frozen at −70° C. prior to assay for cytokine levels by ELISA.
We have used R & D Systems (614 McKinley Place N.E. Minneapolis, Minn. 55413) Quantikine kits for measurement of IL-1β and TNF-α. The assays are performed according to the manufacturer's directions.
We have observed IL-1β levels of ˜1-5 ng/ml in positive controls among a range of individuals. A 1:200 dilution of plasma for all samples has been sufficient in our experiments for ELISA results to fall on the linear range of the ELISA standard curves. It may be necessary to optimize standard dilutions if you observe differences in the whole blood assay. Nerad, J. L. et al., J. Leukocyte Biol., 52, pp. 687-692 (1992).

[4] = Homo sapiens, * = values obtained upon reassay
[5] = * = values obtained upon reassay

Compound | Ki ([1]; Table 5) | IC50 [2] | IC50 ([2]; Homo sapiens, PBMC) | IC50 [3, 4] | IC50 [3, 5] | Ki ([1]; Table 17) | IC50 ([3]; Homo sapiens, Table 17)
Cn1c(C(=O)N[C@H]2CCC(=O)N3CCC[C@@H](C(=O)N[C@H](C=O)CC(=O)O)N3C2=O)cc2ccccc21 [Compound 433] | 2.9 nM | 1100 nM | 1000 nM | 1100 nM |  |  | 
COc1cc(C(=O)N[C@H]2CCC(=O)N3CCC[C@@H](C(=O)N[C@H](C=O)CC(=O)O)N3C2=O)nc2ccccc12 [Compound 437] | 12 nM |  | 1800 nM | 5000 nM |  |  | 
O=C[C@H](CC(=O)O)NC(=O)[C@@H]1CCCN2C(=O)CC[C@H](NC(=O)c3cccc4cccnc34)C(=O)N12 [Compound 439] | 3.7 nM |  | 2800 nM | 3200 nM | 3400 nM |  | 
Nc1cc2ccccc2cc1C(=O)N[C@H]1CCC(=O)N2CCC[C@@H](C(=O)N[C@H](C=O)CC(=O)O)N2C1=O [Compound 440] | 2.3 nM |  | 5000 nM | 2000 nM |  |  | 
CN(C)c1ccc(C(=O)N[C@H]2CCC(=O)N3CCC[C@@H](C(=O)N[C@H](C=O)CC(=O)O)N3C2=O)c2ccccc12 [Compound 441] | 1 nM |  | 2500 nM | 4500 nM |  |  | 
O=C[C@H](CC(=O)O)NC(=O)[C@@H]1CCCN2C(=O)CC[C@H](NC(=O)c3ccc(Oc4ccccc4)cc3)C(=O)N12 [Compound 443] | 3.6 nM |  | 2800 nM | 1500 nM |  |  | 
O=C[C@H](CC(=O)O)NC(=O)[C@@H]1CCCN2C(=O)CC[C@H](NC(=O)c3c(Cl)cccc3Cl)C(=O)N12 [Compound 444] | 15 nM |  | 3500 nM | 3500 nM |  |  | 
CS(=O)(=O)Nc1ccc(C(=O)N[C@H]2CCC(=O)N3CCC[C@@H](C(=O)N[C@H](C=O)CC(=O)O)N3C2=O)cc1 [Compound 447] | 5.8 nM |  | 2500 nM | 1500 nM |  |  | 
O=C[C@H](CC(=O)O)NC(=O)[C@@H]1CCCN2C(=O)CC[C@H](NC(=O)c3cc4ccccc4s3)C(=O)N12 [Compound 453] | 0.65 nM |  | 1300 nM | 1900 nM | 1600 nM |  | 
O=C[C@H](CC(=O)O)NC(=O)[C@@H]1CCCN2C(=O)CC[C@H](NC(=O)c3ccc(OC(=O)c4ccc(O)cc4)cc3)C(=O)N12 [Compound 457] | 6.2 nM |  | 2000 nM | 3500 nM |  |  | 
CS(=O)(=O)c1ccc(C(=O)N[C@H]2CCC(=O)N3CCC[C@@H](C(=O)N[C@H](C=O)CC(=O)O)N3C2=O)cc1 [Compound 460] | 115 nM |  | 400 nM | 2400 nM |  |  | 
Cc1c(Cl)cccc1C(=O)N[C@H]1CCC(=O)N2CCC[C@@H](C(=O)N[C@H](C=O)CC(=O)O)N2C1=O [Compound 465] | 3 nM |  | 1000 nM | 800 nM |  |  | 
Cc1ccc(Cl)cc1C(=O)N[C@H]1CCC(=O)N2CCC[C@@H](C(=O)N[C@H](C=O)CC(=O)O)N2C1=O [Compound 466] | 0.8 nM |  | 1400 nM | 600 nM |  |  | 
COc1c(Cl)cc(C(=O)N[C@H]2CN(C(=O)CO)c3ccccc3N(CC(=O)N[C@H](C=O)CC(=O)O)C2=O)cc1Cl [Compound 918] |  |  |  |  |  | 7 nM | 1150 nM
